T1: Oat3 (organic anion transporter 3) (Mus musculus, UniProt O88909)
T1 sequence (O88909 whole entry): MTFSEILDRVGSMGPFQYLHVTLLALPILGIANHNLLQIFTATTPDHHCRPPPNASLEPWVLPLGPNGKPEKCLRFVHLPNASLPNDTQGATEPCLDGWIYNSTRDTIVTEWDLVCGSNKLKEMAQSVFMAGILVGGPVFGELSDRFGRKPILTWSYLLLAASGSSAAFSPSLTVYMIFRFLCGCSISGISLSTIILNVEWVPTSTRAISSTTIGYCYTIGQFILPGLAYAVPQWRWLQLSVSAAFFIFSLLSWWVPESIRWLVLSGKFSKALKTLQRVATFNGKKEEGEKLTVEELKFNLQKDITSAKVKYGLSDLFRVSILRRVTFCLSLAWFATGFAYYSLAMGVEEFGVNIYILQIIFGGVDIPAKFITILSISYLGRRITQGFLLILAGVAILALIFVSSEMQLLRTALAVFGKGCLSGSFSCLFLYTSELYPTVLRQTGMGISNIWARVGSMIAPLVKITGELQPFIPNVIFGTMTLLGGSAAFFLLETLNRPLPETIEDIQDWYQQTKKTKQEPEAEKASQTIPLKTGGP

T2: Organic anion transporter 3 (Mus musculus, UniProt O88909)
T2 sequence (O88909 whole entry): T1 sequence (O88909 whole entry)

B1: Organic anion transporter 3 (Mus musculus) (protein)
chain: T1 sequence (O88909 whole entry)

Key:
[1] = target: T1, Oat3 (organic anion transporter 3); assay: TP_TRANSPORTER: inhibition of PHA uptake (PHA: 1000uM) in mOat3-expressing oocytes; assay type: functional, cell-based, Oocyte; parameters: scale not given: the % may be the effect or the level left; details: probe PHA (1000 uM)
[2] = target: T2, Organic anion transporter 3; assay: (§1) TP_TRANSPORTER: uptake in mOat3-expressing oocytes; assay type: functional, cell-based; details: oocyte
[3] = target: T1, Oat3 (organic anion transporter 3); assay: TP_TRANSPORTER: inhibition of PHA uptake (PHA: 1000uM) by P-aminohippuric acid at a concentration of 10uM in mOat3-expressing oocytes; assay type: functional, cell-based, Oocyte; parameters: scale not given: the % may be the effect or the level left; details: probe PHA (1000 uM), read-out: Activity
[4] = substrate: C[N+](C)(C)C[C@H](O)CC(=O)[O-]; assay: as §1; assay type: functional, cell-based, Oocyte
[5] = substrate: Sc1ncnc2nc[nH]c12; assay: as §1; assay type: functional, cell-based, Oocyte
[6] = substrate: O=c1[nH]cc(F)c(=O)[nH]1; assay: as §1; assay type: functional, cell-based, Oocyte

| Molecule | Activity [1] [%] | Activity [2] | also measured |
| --- | --- | --- | --- |
| CCOC(=O)[C@H](CCc1ccccc1)N[C@@H](C)C(=O)N1CCC[C@H]1C(=O)O | 45 |  |  |
| Oc1ncnc2[nH]ncc12 [ALLOPURINOL] |  | substrate [] |  |
| Nc1ccc(C(=O)NCC(=O)O)cc1 [AMINOHIPPURIC ACID] |  | substrate [] | activity at 10 µM [3]: 20% |
| CN/C(=N/CCSCc1nc[nH]c1C)NC#N [CIMETIDINE] | 65 |  |  |
| CCCCC[C@H](O)/C=C/[C@H]1[C@H](O)CC(=O)[C@@H]1C/C=C\CCCC(=O)O [DINOPROSTONE] |  | substrate [] |  |
| CCCCC[C@H](O)/C=C/[C@@H]1[C@@H](C/C=C\CCCC(=O)O)[C@@H](O)C[C@H]1O [DINOPROST] |  | substrate [] |  |
| C[C@]12CC[C@@H]3c4ccc(OS(=O)(=O)O)cc4CC[C@H]3[C@@H]1CCC2=O [ESTRONE SULFURIC ACID] |  | substrate [] |  |
| CC(C)Cc1ccc(C(C)C(=O)O)cc1 (stereo not drawn) [IBUPROFEN] | 80 |  |  |
| CN1C(C(=O)Nc2ccccn2)=C(O)c2sccc2S1(=O)=O [TENOXICAM] | 55 |  |  |
| B1 |  |  | Km [4]: 0.0619 µM; Km [5]: 4.01 µM; Km [6]: 0.0539 µM |

From ChEMBL document CHEMBL2074036, “Renal transport of organic compounds mediated by mouse organic anion transporter 3 (mOat3): further substrate specificity of mOat3” (Drug Metab Dispos, 2004)
